Assay results as given in US20260297042A1, “BIARYLAMIDE DERIVATIVES AND THEIR USE AS PKMYT1 INHIBITORS” (CANCER RESEARCH TECHNOLOGY LIMITED, priority 2023, published 2026).
Counter-ions that a name gives are not always drawn.

Assays:
Human PKMYT1 = target: T1, Human PKMYT1 (Homo sapiens, UniProt Q99640); test: PKMYT1 biochemical ADP-Glo enzymatic assay; conditions: ADP-Glo
T1 construct: Human PKMYT1 75-362 was cloned as a TEV cleavable 6xHis fusion; 6xHis (TEV cleavable) (cleaved yes); made in house; host or cells: bacterial cells
T1 sequence (Q99640 75-362): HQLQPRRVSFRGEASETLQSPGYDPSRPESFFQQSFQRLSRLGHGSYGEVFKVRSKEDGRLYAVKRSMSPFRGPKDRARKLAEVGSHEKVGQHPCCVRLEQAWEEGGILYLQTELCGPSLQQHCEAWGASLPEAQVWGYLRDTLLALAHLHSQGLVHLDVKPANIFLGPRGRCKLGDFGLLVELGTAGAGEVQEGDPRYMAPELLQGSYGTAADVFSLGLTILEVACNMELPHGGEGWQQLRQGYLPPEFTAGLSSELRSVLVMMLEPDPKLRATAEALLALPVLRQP
Method in brief: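 Purified untagged human PKMYT1 75-362 at 15 nM final was tested in HEPES pH 7.5 with MgCl2, EGTA, Brij-35 and 1% DMSO. Intrinsic ATPase activity was measured with 500 uM ATP over 60 min at 26° C. ADP-Glo luminescence was read and IC50 fitted from 10-point, 3-fold dilution curves.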

WEE1 = target: T2, WEE1 (Homo sapiens, UniProt P30291); test: Selectivity versus WEE1 assay (ADP-Glo enzymatic assay); format: biochemical; conditions: for IC50: ADP-Glo; for PKMYT1 vs. WEE1 selectivity: fold difference in selectivity for PKMYT1 over WEE1
T2 construct: purchased Thermo Fisher PR7373A
Method in brief: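 WEE1 at 15 nM final in 50 mM HEPES pH 7.5, 10 mM MgCl2, 1 mM EGTA, 0.01% Brij-35, 1% DMSO; reaction started with 30 µM ATP, 60 min at 26 °C. ADP-Glo luminescence; IC50 from dose-response curves, replicates within 3-fold and r2 >0.9.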

[1] = 15 nM PKMYT1 kinase domain, 500 µM ATP, 60 minutes at 26° C., banded
[2] = 15 nM WEE1, 60 minutes at 26° C., banded
[3] = banded, ">N" = at least in this band but could be higher
[4] = PKMYT1 kinase domain 15 nM, banded values

T2 sequence (P30291 whole entry): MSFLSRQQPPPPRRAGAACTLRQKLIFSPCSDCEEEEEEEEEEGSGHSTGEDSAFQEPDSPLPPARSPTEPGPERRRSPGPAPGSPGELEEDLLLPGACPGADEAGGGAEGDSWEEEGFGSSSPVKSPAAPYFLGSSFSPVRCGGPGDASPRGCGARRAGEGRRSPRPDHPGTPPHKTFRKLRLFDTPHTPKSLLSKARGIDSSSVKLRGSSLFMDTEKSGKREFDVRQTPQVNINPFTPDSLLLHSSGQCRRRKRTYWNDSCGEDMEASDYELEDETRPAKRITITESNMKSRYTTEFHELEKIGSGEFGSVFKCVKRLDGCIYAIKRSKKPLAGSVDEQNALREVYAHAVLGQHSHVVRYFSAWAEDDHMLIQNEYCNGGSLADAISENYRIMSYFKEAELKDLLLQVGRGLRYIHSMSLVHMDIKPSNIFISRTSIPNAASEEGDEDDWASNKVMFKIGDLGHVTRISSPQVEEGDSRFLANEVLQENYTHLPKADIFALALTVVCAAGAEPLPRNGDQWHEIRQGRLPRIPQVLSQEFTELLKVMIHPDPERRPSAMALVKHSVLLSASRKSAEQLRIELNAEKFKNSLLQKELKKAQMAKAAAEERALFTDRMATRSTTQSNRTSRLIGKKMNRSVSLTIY

| IC50 (Human PKMYT1; [1]) [nM] | IC50 (WEE1; [2]) [nM] | PKMYT1 vs. WEE1 selectivity (WEE1; [3]) | IC50 (Human PKMYT1; [4]) [nM] | IC50 (WEE1; WEE1 15 nM, banded values) [nM] | PKMYT1 vs. WEE1 selectivity (WEE1; banded) | SMILES |
| --- | --- | --- | --- | --- | --- | --- |
| < 50 | > 11000 | Z (>5000 fold) | – | – | – | Cc1ccc(O)c(C)c1NC(=O)c1cnc(Nc2ccn(C3CCCOC3)n2)s1 (centres unmarked) [BAA-036, N-(3-hydroxy-2,6-dimethyl-phenyl)-2-[(1-tetrahydropyran-3-ylpyrazol-3-yl)amino]thiazole-5-carboxamide] |
| 50 to 1000 | > 11000 | >X (100-<1000 fold) | – | – | – | Cc1ccc(O)c(C)c1NC(=O)c1cnc(Nc2ccn(CC(=O)N3CCN(CC(F)(F)F)CC3)n2)s1 [BAA-184] |
| < 50 | 1000 to 11000 | X (100-<1000 fold) | – | – | – | CCCCCCCNC(=O)Cn1ccc(Nc2ncc(C(=O)Nc3c(C)ccc(O)c3C)s2)n1 [BAA-135] |
| 50 to 1000 | > 11000 | >X (100-<1000 fold) | – | – | – | Cc1ccc(O)c(C)c1NC(=O)c1cnc(NCCNC(=O)OC(C)(C)C)s1 [BAA-068, tert-butyl N-[2-[5-[(3-hydroxy-2,6-dimethyl-phenyl)carbamoyl]thiazol-2-yllamino]ethyl]carbamate] |
| 50 to 1000 | > 11000 | X (100-<1000 fold) | – | – | – | CCCn1ccc(Nc2ncc(C(=O)Nc3c(C)ccc(O)c3C)s2)n1 [BAA-006, N-(3-hydroxy-2,6-dimethyl-phenyl)-2-[(1-propylpyrazol-3-yl)amino]thiazole-5-carboxamide] |
| < 50 | > 11000 | Y (1000-5000 fold) | – | – | – | Cc1ccc(O)c(C)c1NC(=O)c1cnc(Nc2nccc(-c3ccc(Cl)cc3)n2)s1 [BAA-293, 2-((4-(4-chlorophenyl)pyrimidin-2-yl)amino)-N-(3-hydroxy-2,6-dimethylphenyl)thiazole-5-carboxamide] |
| < 50 | > 11000 | Y (1000-5000 fold) | – | – | – | Cc1ccc(O)c(C)c1NC(=O)c1cnc(Nc2ccn(CC(=O)NC3CCCC3)n2)s1 [BAA-192] |
| 50 to 1000 | > 11000 | X (100-<1000 fold) | – | – | – | Cc1ccc(O)c(C)c1NC(=O)c1cnc(Nc2cccc(C(=O)NC(C(C)C)C(F)(F)F)c2)s1 (centres unmarked) [BAA-259, N-(3-hydroxy-2,6-dimethylphenyl)-2-((3-((1,1,1-trifluoro-3-methylbutan-2-yl)carbamoyl)phenyl)amino)thiazole-5-carboxamide] |
| < 50 | > 11000 | Y (1000-5000 fold) | – | – | – | Cc1ccc(O)c(C)c1NC(=O)c1cnc(Nc2ccn(CC(=O)N3CCN(C4CCCC4)CC3)n2)s1 [BAA-186] |
| 50 to 1000 | > 11000 | Y (1000-5000 fold) | – | – | – | Cc1ccc(O)c(C)c1NC(=O)c1cnc(Nc2ccnn2C)s1 [BAA-010, N-(3-hydroxy-2,6-dimethyl-phenyl)-2-[(2-methylpyrazol-3-yl)amino]thiazole-5-carboxamide] |
| – | – | – | < 50 | > 11000 | Y (1000-5000 fold) | Cc1ccc(O)c(C)c1NC(=O)c1cnc(Nc2ccncn2)s1 [BAA-435, N-(3-hydroxy-2,6-dimethylphenyl)-2-(pyrimidin-4-ylamino)thiazole-5-carboxamide] |
| < 50 | 1000 to 11000 | X (100-<1000 fold) | – | – | – | CCn1ccc(Nc2ncc(C(=O)Nc3c(C)ccc(O)c3C)s2)n1 [BAA-005, 2-[(1-ethylpyrazol-3-yl)amino]-N-(3-hydroxy-2,6-dimethyl-phenyl)thiazole-5-carboxamide] |
| < 50 | > 11000 | Y (1000-5000 fold) | – | – | – | Cc1ccc(O)c(C)c1NC(=O)c1cnc(Nc2nccs2)s1 [BAA-257, N-(3-hydroxy-2,6-dimethylphenyl)-2-(thiazol-2-ylamino)thiazole-5-carboxamide] |
| 50 to 1000 | > 11000 | >Y (1000-5000 fold) | – | – | – | Cc1ccc(O)c(C)c1NC(=O)c1cnc(Nc2ccn([C@@H]3CCN(C(=O)Cc4ccc(N(C)C)cc4)C3)n2)s1 [BAA-105, 2-[[1-[(3R)-1-[2-[4-(dimethylamino)phenyl]acetyl]pyrrolidin-3-yl]pyrazol-3-yl]amino]-N-(3-hydroxy-2,6-dimethyl-phenyl) thiazole-5-carboxamide] |
| < 50 | > 11000 | Y (1000-5000 fold) | – | – | – | Cc1ccc(O)c(C)c1NC(=O)c1cnc(Nc2ccn(CC(=O)N3CC4C(C3)C4(F)F)n2)s1 (centres unmarked) [BAA-194] |
| – | – | – | < 50 | 1000 to 11000 | X (100-<1000 fold) | CCN(CCC#N)C(=O)Cn1cc(C)c(Nc2ncc(C(=O)Nc3c(C)ccc(O)c3C)s2)n1 [BAA-532, 2-((1-(2-((2-cyanoethyl)(ethyl)amino)-2-oxoethyl)-4-methyl-1H-pyrazol-3-yl)amino)-N-(3-hydroxy-2,6-dimethylphenyl)thiazole-5-carboxamide] |
| 50 to 1000 | > 11000 | – | – | – | – | Cc1ccc(O)c(C)c1NC(=O)c1cnc(Nc2ccn([C@@H]3CCN(C(=O)c4ccccc4)C3)n2)s1 [BAA-087] |
| < 50 | > 11000 | X (100-<1000 fold) | – | – | – | Cc1ccc(O)c(C)c1NC(=O)c1cnc(Nc2nncs2)s1 [BAA-028, N-(3-hydroxy-2,6-dimethyl-phenyl)-2-(1,3,4-thiadiazol-2-ylamino)thiazole-5-carboxamide] |
| 1000 to 11000 | > 11000 | W (10-<100 fold) | – | – | – | Cc1ccc(O)c(C)c1NC(=O)c1cnc(Nc2cccc(S(=O)(=O)C(F)(F)F)c2)s1 [BAA-284, N-(3-hydroxy-2,6-dimethylphenyl)-2-((3-((trifluoromethyl)sulfonyl)phenyl)amino) thiazole-5-carboxamide] |
| < 50 | 50 to 1000 | W (10-<100 fold) | – | – | – | Cc1ccc(O)c(C)c1NC(=O)c1cnc(Nc2ccn(C3COC3)n2)s1 [BAA-007, N-(3-hydroxy-2,6-dimethyl-phenyl)-2-[[1-(oxetan-3-yl)pyrazol-3-yl]amino]thiazole-5-carboxamide] |
| 50 to 1000 | > 11000 | Y (1000-5000 fold) | – | – | – | Cc1ccc(O)c(C)c1NC(=O)c1cnc(Nc2ccc3cc(Br)cnc3n2)s1 [BAA-298, 2-((6-bromo-1,8-naphthyridin-2-yl)amino)-N-(3-hydroxy-2,6-dimethylphenyl)thiazole-5-carboxamide] |
| 1000 to 11000 | > 11000 | >W (10-<100 fold) | – | – | – | Cc1ccc(O)c(C)c1NC(=O)c1cnc(Nc2ccn([C@H]3CCNC3)n2)s1 [BAA-057, N-(3-hydroxy-2,6-dimethyl-phenyl)-2-[1-[(3S)-pyrrolidin-3-yl]pyrazol-3-yllamino]thiazole-5-carboxamide (hydrochloride)] |
| < 50 | 1000 to 11000 | X (100-<1000 fold) | – | – | – | Cc1ccc(O)c(C)c1NC(=O)c1cnc(Nc2ccn(CC(=O)N3CCN(C)CC3)n2)s1 [BAA-034] |
| < 50 | 1000 to 11000 | X (100-<1000 fold) | – | – | – | CCOC(=O)c1cc(Nc2ncc(C(=O)Nc3c(C)ccc(O)c3C)s2)nn1C [BAA-024] |
| < 50 | > 11000 | Y (1000-5000 fold) | – | – | – | Cc1ccc(O)c(C)c1NC(=O)c1cnc(Nc2ccn(CC(=O)NC3CCOCC3)n2)s1 [BAA-195] |
